In patent publication US9028845B2, “Chimeric immunomodulatory compounds and methods of using the same-IV” (Dynavax Technologies Corporation, priority 2001, dated 2015):
Entries after “also recorded” stand apart in the source; their conditions may differ. Marks after values point to notes of the source that are not given here.

Columns and labels:
[1] = system: CD19+ B cells; experiment: Human B cell proliferation assay (3H-thymidine incorporation); conditions: 2 μg/ml; for B cell proliferation, in words: 48 h plus 8 h 3H-thymidine pulse; for cpm1 / cpm2 / cpm3 / mean cpm / mean of both: B cells
[2] = system: mice; experiment: Serum cytokines (IL-12 p40, IL-6, TNF-α) after subcutaneous injection in mice; format: in vivo; conditions: 20 ug subcutaneous, blood 2 hours later
Procedure: Blood was collected 2 hours later. For the LPS positive control group, mice were injected intraperitoneally with a 200 ul volume, and blood was collected 1.5 hours later (i.e., at the peak of LPS induced TNF-α activity). The blood was clotted and the serum was prepared and stored at −80° C. until assayed. Serum cytokines were assayed using Biosource cytoscreen kits for TNF-α and Pharmingen antibody pairs for mIL-6 and mIL-12. All samples were assayed in duplicate.

[3] = system: PBMCs; experiment: Human PBMC proliferation assay (3H-thymidine incorporation); format: cell-based; conditions: Experiment A; for mean cpm: 2 μg/ml; for mean of both: mean of Donors 146 and 147, 2 μg/ml
[4] = system: human PBMCs; experiment: Human PBMC cytokine response assay (IFN-γ and IFN-α in cell-free medium by ELISA), with or without cPLGA; format: cell-based; conditions: for immunomodulatory activity (IFN-γ / IFN-α secretion), in words: used alone (no cPLGA);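 on IFN-α (pg/ml) mean: 20 µg/mL compound for 24 hours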;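 on IFN-γ (pg/ml) mean: 20 µg/mL compound for 24 hours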
[5] = system: hepatitis B surface antigen (HBsAg); conditions: in vivo
[6] = mean of Donors 146 and 147, Experiment A
[7] = Table 25, mean of donors 28250-28253
[8] = mean of Donors 1-2, 20 μg/ml, 24 h
[9] = mean of Donors 3-4, 20 μg/ml, 24 h
[10] = donor 28066, 20 ug/ml, 24 h, + PLGA = premixed with 100 μg/ml cPLGA
[11] = donor 28067, 20 ug/ml, 24 h, + PLGA = premixed with 100 μg/ml cPLGA
[12] = donor 28068, 20 ug/ml, 24 h, + PLGA = premixed with 100 μg/ml cPLGA
[13] = mean of Donors 9-12, 20 μg/ml, 24 h
[14] = mean of donors 110, 112, 119, 120, Table 14
[15] = mean of donors 28065-28068, 20 ug/ml, 24 h, + PLGA = premixed with 100 μg/ml cPLGA
[16] = mean of donors 28185-28188, Table 15

## 5′-TCGTCGA-3′ [Compound P-1, reference compound]
[1]
  B cell proliferation, in words: little to no B cell proliferation
[1]; Donor 146, Experiment A
  cpm1: 761 cpm
  cpm2: 608 cpm
  cpm3: 721 cpm
[1]; Donor 146 mean, Experiment A
  mean cpm: 697 cpm
[1]; Donor 147, Experiment A
  cpm1: 569 cpm
  cpm2: 460 cpm
  cpm3: 687 cpm
[1]; Donor 147 mean, Experiment A
  mean cpm: 572 cpm
[1]; [6]
  mean of both: 634 cpm
[2]
  induction of serum IL-12 p40, IL-6 and TNF-α, in words: inactive
[3]; Donor 146, 2 μg/ml
  cpm1: 9724 cpm
  cpm2: 3041 cpm
  cpm3: 2425 cpm
[3]; Donor 146 mean
  mean cpm: 5063 cpm
[3]; Donor 147, 2 μg/ml
  cpm1: 1706 cpm
  cpm2: 1960 cpm
  cpm3: 324 cpm
[3]; Donor 147 mean
  mean cpm: 1330 cpm
[3]
  mean of both: 3197 cpm
[4]; 20 μg/ml, 24 h
  IFN-α (pg/ml) Donor 1: 0 pg/mL
  IFN-γ (pg/ml) Donor 1: 8 pg/mL
  IFN-α (pg/ml) Donor 2: 0 pg/mL
  IFN-γ (pg/ml) Donor 2: 0 pg/mL
[4]; Donor 3, 20 μg/ml, 24 h
  IFN-α (pg/ml) Donor 3: 0 pg/mL
  IFN-γ (pg/ml) Donor 3: 1 pg/mL
[4]; Donor 4, 20 μg/ml, 24 h
  IFN-α (pg/ml) Donor 4: 32 pg/mL
  IFN-γ (pg/ml) Donor 4: 4 pg/mL
[4]; Table 25, donor 28250
  IFN-a: 16 pg/mL
[4]; Table 25, donor 28250, polynucleotides/spacers at amounts equivalent to the CIC, spacers alone 9 uM
  IFN-g: 54 pg/mL
[4]; Table 25, donor 28251
  IFN-a: 16 pg/mL
  IFN-g: 21 pg/mL
[4]; Table 25, donor 28252
  IFN-a: 16 pg/mL
  IFN-g: 56 pg/mL
[4]; Table 25, donor 28253
  IFN-a: 16 pg/mL
  IFN-g: 1 pg/mL
[4]; [7]
  IFN-a mean: 16 pg/mL
  IFN-g mean: 33 pg/mL
[4]; [8]
  IFN-α (pg/ml) mean: 0 pg/mL
  IFN-γ (pg/ml) mean: 4 pg/mL
[4]; [9]
  IFN-α (pg/ml) mean: 16 pg/mL
  IFN-γ (pg/ml) mean: 2 pg/mL
[4]
  immunomodulatory activity (IFN-γ / IFN-α secretion), in words: no activity; also recorded: did not have immunomodulatory activity

## 5′-TCGTCGA-3′-HEG-5′-ACGTTCG-3′-HEG-5′-AGATGAT-3′ [Compound C-8]
[1]
  B cell proliferation, in words: cause B cells to proliferate
[1]; Donor 146, Experiment A
  cpm1: 23815 cpm
  cpm2: 30066 cpm
  cpm3: 22969 cpm
[1]; Donor 146 mean, Experiment A
  mean cpm: 25617 cpm
[1]; Donor 147, Experiment A
  cpm1: 20914 cpm
  cpm2: 22370 cpm
  cpm3: 23659 cpm
[1]; Donor 147 mean, Experiment A
  mean cpm: 22314 cpm
[1]; donor 121, Experiment B
  cpm1: 2604 cpm
  cpm2: 12078 cpm
  cpm3: 17696 cpm
[1]; donor 121 mean, Experiment B
  mean cpm: 10793 cpm
[1]; donor 194, Experiment B
  cpm1: 9333 cpm
  cpm2: 9391 cpm
  cpm3: 7602 cpm
[1]; donor 194 mean, Experiment B
  mean cpm: 8775 cpm
[1]; [6]
  mean of both: 23966 cpm
[1]; mean of donors 121 and 194, Experiment B
  mean of both: 9784 cpm
[5]
  Anti-HBsAg (mIU/ml) post-first, Mean: 22 mIU/ml
  Anti-HBsAg (mIU/ml) post-second, Mean: 9294** mIU/ml
[3]; Donor 146, 2 μg/ml
  cpm1: 47202 cpm
  cpm2: 40790 cpm
  cpm3: 44811 cpm
[3]; Donor 146 mean
  mean cpm: 44268 cpm
[3]; Donor 147, 2 μg/ml
  cpm1: 38845 cpm
  cpm2: 39733 cpm
  cpm3: 27981 cpm
[3]; Donor 147 mean
  mean cpm: 35520 cpm
[3]
  mean of both: 39894 cpm
[4]; 20 μg/ml, 24 h
  IFN-α (pg/ml) Donor 1: 1609 pg/mL
  IFN-γ (pg/ml) Donor 1: 1916 pg/mL
  IFN-α (pg/ml) Donor 2: 44 pg/mL
  IFN-γ (pg/ml) Donor 2: 696 pg/mL
[4]; Donor 9, 20 μg/ml, 24 h
  IFN-α Donor 9: 58
  IFN-γ Donor 9: 312
[4]; Donor 10, 20 μg/ml, 24 h
  IFN-α Donor 10: 30
  IFN-γ Donor 10: 35
[4]; Donor 11, 20 μg/ml, 24 h
  IFN-α Donor 11: 18
  IFN-γ Donor 11: 31
[4]; Donor 12, 20 μg/ml, 24 h
  IFN-α Donor 12: 49
  IFN-γ Donor 12: 28
[4]; Table 9, donor 28089
  IFN-α: 21 pg/mL
  IFN-γ: 62 pg/mL
[4]; Table 9, donor 28090
  IFN-α: 124 pg/mL
  IFN-γ: 52 pg/mL
[4]; Table 9, donor 28098
  IFN-α: 314 pg/mL
  IFN-γ: 205 pg/mL
[4]; Table 9, donor 28099
  IFN-α: 362 pg/mL
  IFN-γ: 116 pg/mL
[4]; Table 9, mean of donors
  IFN-α mean: 205 pg/mL
  IFN-γ mean: 109 pg/mL
[4]; Table 10, donor 28042
  IFN-α: 20 pg/mL
  IFN-γ: 468 pg/mL
[4]; Table 10, donor 28043
  IFN-α: 51 pg/mL
  IFN-γ: 939 pg/mL
[4]; Table 10, donor 28044
  IFN-α: 32 pg/mL
  IFN-γ: 1000 pg/mL
[4]; Table 10, donor 28045
  IFN-α: 5 pg/mL
  IFN-γ: 234 pg/mL
[4]; Table 10, mean of donors
  IFN-α mean: 27 pg/mL
  IFN-γ mean: 660 pg/mL
[4]; Table 11, donor 28042
  IFN-α: 78 pg/mL
  IFN-γ: 623 pg/mL
[4]; Table 11, donor 28043
  IFN-α: 25 pg/mL
  IFN-γ: 753 pg/mL
[4]; Table 11, donor 28044
  IFN-α: 52 pg/mL
  IFN-γ: 646 pg/mL
[4]; Table 11, donor 28045
  IFN-α: 256 pg/mL
  IFN-γ: 604 pg/mL
[4]; Table 11, mean of donors
  IFN-α mean: 103 pg/mL
  IFN-γ mean: 656 pg/mL
[4]; Table 13, donor 28156
  IFN-α: 102 pg/mL
  IFN-γ: 1612 pg/mL
[4]; Table 13, donor 28157
  IFN-α: 755 pg/mL
  IFN-γ: 742 pg/mL
[4]; Table 13, donor 28158
  IFN-α: 61 pg/mL
  IFN-γ: 340 pg/mL
[4]; Table 13, donor 28159
  IFN-α: 160 pg/mL
  IFN-γ: 197 pg/mL
[4]; Table 13, mean of donors
  IFN-α mean: 270 pg/mL
  IFN-γ mean: 723 pg/mL
[4]; donor 110, Table 14
  IFN-α: 196 pg/mL
  IFN-γ: 1152 pg/mL
[4]; donor 112, Table 14
  IFN-α: 30 pg/mL
  IFN-γ: 540 pg/mL
[4]; donor 119, Table 14
  IFN-α: 264 pg/mL
  IFN-γ: 136 pg/mL
[4]; donor 120, Table 14
  IFN-α: 42 pg/mL
  IFN-γ: 48 pg/mL
[4]; donor 28065 (high background), 20 ug/ml, 24 h, + PLGA = premixed with 100 μg/ml cPLGA, 1000 = outside assay limits
  IFN-γ (pg/ml) 28065: 1000 pg/mL
[4]; donor 28065, 20 ug/ml, 24 h, + PLGA = premixed with 100 μg/ml cPLGA
  IFN-α (pg/ml) 28065: 123 pg/mL
[4]; [10]
  IFN-α (pg/ml) 28066: 6 pg/mL
  IFN-γ (pg/ml) 28066: 19 pg/mL
[4]; [11]
  IFN-α (pg/ml) 28067: 96 pg/mL
  IFN-γ (pg/ml) 28067: 56 pg/mL
[4]; [12]
  IFN-α (pg/ml) 28068: 358 pg/mL
  IFN-γ (pg/ml) 28068: 419 pg/mL
[4]; donor 28185, Table 15
  IFN-a: 196 pg/mL
  IFN-g: 154 pg/mL
[4]; donor 28186, Table 15
  IFN-a: 31 pg/mL
  IFN-g: 25 pg/mL
[4]; donor 28187, Table 15
  IFN-a: 202 pg/mL
  IFN-g: 123 pg/mL
[4]; donor 28188, Table 15
  IFN-a: 4 pg/mL
  IFN-g: 9 pg/mL
[4]; [8]
  IFN-α (pg/ml) mean: 827 pg/mL
  IFN-γ (pg/ml) mean: 1306 pg/mL
[4]; [13]
  IFN-α mean: 39
  IFN-γ mean: 102
[4]; [14]
  IFN-α (pg/ml) mean: 133 pg/mL
  IFN-γ (pg/ml) mean: 469 pg/mL
[4]; [15]
  IFN-α (pg/ml) mean: 146 pg/mL
  IFN-γ (pg/ml) mean: 373 pg/mL
[4]; [16]
  IFN-a (pg/ml) mean: 108 pg/mL
  IFN-g (pg/ml) mean: 78 pg/mL
[4]; mean ×2, Table 15
  IFN-a (pg/ml) ×2: 217 pg/mL
[4]; mean ×4, Table 15
  IFN-g (pg/ml) ×4: 311 pg/mL
[4]
  immunomodulatory activity (IFN-γ / IFN-α secretion), in words: more active than other CG-containing CICs; also recorded: most active CICs
